According to ChEMBL document CHEMBL1134302, “Cheminformatic models to predict binding affinities to human serum albumin” (J Med Chem, 2001):

Each compound was assayed against Albumin (Homo sapiens, UniProt P02768) (assay: Binding constant against human serum albumin (HSA)).
Albumin, sequence (P02768 whole entry): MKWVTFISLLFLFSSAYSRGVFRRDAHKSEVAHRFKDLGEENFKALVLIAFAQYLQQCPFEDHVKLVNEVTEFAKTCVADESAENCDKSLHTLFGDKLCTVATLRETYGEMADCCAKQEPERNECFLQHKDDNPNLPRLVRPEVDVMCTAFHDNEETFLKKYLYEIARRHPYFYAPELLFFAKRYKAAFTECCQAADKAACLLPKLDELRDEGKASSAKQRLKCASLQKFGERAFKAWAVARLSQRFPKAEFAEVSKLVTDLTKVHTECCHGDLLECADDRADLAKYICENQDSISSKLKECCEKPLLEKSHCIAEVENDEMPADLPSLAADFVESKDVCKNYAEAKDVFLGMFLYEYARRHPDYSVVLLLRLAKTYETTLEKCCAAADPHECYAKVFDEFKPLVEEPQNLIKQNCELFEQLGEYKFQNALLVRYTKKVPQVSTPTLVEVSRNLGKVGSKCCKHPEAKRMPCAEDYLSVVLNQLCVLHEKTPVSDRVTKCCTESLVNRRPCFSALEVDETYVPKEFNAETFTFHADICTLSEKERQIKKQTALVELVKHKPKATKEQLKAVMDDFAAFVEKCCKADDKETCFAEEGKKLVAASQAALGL

| Structure (SMILES) | Log K' |
| --- | --- |
| CNS(=O)(=O)Cc1ccc2[nH]cc(CCN(C)C)c2c1 | 0.05 |
| CCCC(=O)Nc1ccc(OCC(O)CNC(C)C)c(C(C)=O)c1 (centres undefined) [ACEBUTOLOL] | 0.21 |
| CC(=O)Nc1ccc(O)cc1 [ACETAMINOPHEN] | 0.81 |
| Cc1ccc(/C(=C\CN2CCCC2)c2cccc(/C=C/C(=O)O)n2)cc1 [ACRIVASTINE] | 0.02 |
| C=CCc1ccccc1OCC(O)CNC(C)C (centres undefined) [ALPRENOLOL] | 0.04 |
| CC1(C)S[C@@H]2[C@H](NC(=O)[C@H](N)c3ccc(O)cc3)C(=O)N2[C@H]1C(=O)O [AMOXICILLIN] | 1.21 |
| Cc1cc(=O)n(-c2ccccc2)n1C [ANTIPYRINE] | 0.69 |
| CC(=O)Oc1ccccc1C(=O)O [ASPIRIN] | 1.39 |
| CCCCNc1cc(C(=O)O)cc(S(N)(=O)=O)c1Oc1ccccc1 [BUMETANIDE] | 0.03 |
| CC(NC(C)(C)C)C(=O)c1cccc(Cl)c1 (centres undefined) [BUPROPION] | 0.05 |
| Cn1c(=O)c2c(ncn2C)n(C)c1=O [CAFFEINE] | 0.92 |
| CC[C@@]1(O)C(=O)OCc2c1cc1n(c2=O)Cc2cc3ccccc3nc2-1 [CAMPTOTHECIN] | 0.08 |
| C[C@H](CS)C(=O)N1CCC[C@H]1C(=O)O [CAPTOPRIL] | 2.69 |
| CO/N=C(\C(=O)N[C@@H]1C(=O)N2C(C(=O)OC(C)OC(C)=O)=C(COC(N)=O)CS[C@H]12)c1ccco1 (some centres undefined) [CEFUROXIME AXETIL] | 0.56 |
| CO/N=C(\C(=O)N[C@@H]1C(=O)N2C(C(=O)O)=C(COC(N)=O)CS[C@H]12)c1ccco1 [CEFUROXIME] | 1.33 |
| O=C(N[C@H](CO)[C@H](O)c1ccc([N+](=O)[O-])cc1)C(Cl)Cl [CHLORAMPHENICOL] | 0.46 |
| CCCNC(=O)NS(=O)(=O)c1ccc(Cl)cc1 [CHLORPROPAMIDE] | 0.44 |
| CN/C(=N/CCSCc1nc[nH]c1C)NC#N [CIMETIDINE] | 0.44 |
| CCOC(=O)C(C)(C)Oc1ccc(Cl)cc1 [CLOFIBRATE] | 0.27 |
| Clc1cccc(Cl)c1N=C1NCCN1 [CLONIDINE] | 0.13 |
| Clc1ccccc1C(c1ccccc1)(c1ccccc1)n1ccnc1 [CLOTRIMAZOLE] | 1.34 |
| O=C(O)c1cc(=O)c2c(OCC(O)COc3cccc4oc(C(=O)O)cc(=O)c34)cccc2o1 [CROMOLYN] | 1.07 |
| CN(C)c1cccc2c(S(=O)(=O)NCC(=O)O)cccc12 [DANSYLGLYCINE] | -0.26 |
| CNCCCN1c2ccccc2CCc2ccccc21 [DESIPRAMINE] | 0.61 |
| C[C@H]1O[C@@H](O[C@H]2[C@@H](O)C[C@H](O[C@H]3[C@@H](O)C[C@H](O[C@H]4CC[C@@]5(C)[C@H](CC[C@@H]6[C@@H]5CC[C@]5(C)[C@@H](C7=CC(=O)OC7)CC[C@]65O)C4)O[C@@H]3C)O[C@@H]2C)C[C@H](O)[C@@H]1O [DIGITOXIN] | 0.13 |

| Structure (SMILES) | Log K' |
| --- | --- |
| C[C@H]1c2cccc(O)c2C(=O)C2=C(O)[C@]3(O)C(=O)C(C(N)=O)=C(O)[C@@H](N(C)C)[C@@H]3[C@@H](O)[C@@H]21.O [DOXYCYCLINE] | 0.01 |
| O=C(CCCN1CC=C(n2c(=O)[nH]c3ccccc32)CC1)c1ccc(F)cc1 [DROPERIDOL] | 0.43 |
| O=c1c2ccccc2[se]n1-c1ccccc1 [EBSELEN] | 1.04 |
| C[C@]12CC[C@@H]3c4ccc(O)cc4CC[C@H]3[C@@H]1CC[C@@H]2O [ESTRADIOL] | 0.68 |
| Nc1nc(=O)[nH]cc1F [FLUCYTOSINE] | 1.11 |
| CC(=O)O[C@H]1C[C@@]2(C)[C@@H](C[C@@H](O)[C@H]3[C@@]4(C)CC[C@@H](O)[C@@H](C)[C@@H]4CC[C@@]32C)/C1=C(\CCC=C(C)C)C(=O)O [FUSIDIC ACID] | 0.33 |
| COc1ccc(Cl)cc1C(=O)NCCc1ccc(S(=O)(=O)NC(=O)NC2CCCCC2)cc1 [GLYBURIDE] | 0.68 |
| NS(=O)(=O)c1cc2c(cc1Cl)NCNS2(=O)=O [HYDROCHLOROTHIAZIDE] | 0.42 |
| C[C@]12CCC(=O)C=C1CC[C@@H]1[C@@H]2[C@@H](O)C[C@@]2(C)[C@H]1CC[C@]2(O)C(=O)CO [HYDROCORTISONE] | 0.4 |
| CN(C)CCCN1c2ccccc2CCc2ccccc21 [IMIPRAMINE] | 0.75 |
| CCC(C)n1ncn(-c2ccc(N3CCN(c4ccc(OC[C@H]5CO[C@](Cn6cncn6)(c6ccc(Cl)cc6Cl)O5)cc4)CC3)cc2)c1=O (some centres undefined) [ITRACONAZOLE] | 1.04 |
| CC(=O)N1CCN(c2ccc(OC[C@H]3CO[C@](Cn4ccnc4)(c4ccc(Cl)cc4Cl)O3)cc2)CC1 [KETOCONAZOLE] | 0.84 |
| CC(CCc1ccccc1)NCC(O)c1ccc(O)c(C(N)=O)c1 (centres undefined) [LABETALOL] | 0.14 |
| Nc1nnc(-c2cccc(Cl)c2Cl)c(N)n1 [LAMOTRIGINE] | 0.13 |
| C[C@H]1COc2c(N3CCN(C)CC3)c(F)cc3c(=O)c(C(=O)O)cn1c23.C[C@H]1COc2c(N3CCN(C)CC3)c(F)cc3c(=O)c(C(=O)O)cn1c23.O [LEVOFLOXACIN] | 0.14 |
| CN(Cc1cnc2nc(N)nc(N)c2n1)c1ccc(C(=O)N[C@@H](CCC(=O)O)C(=O)O)cc1 [METHOTREXATE] | 0.77 |
| C[C@H]1C[C@@H]2[C@H]([C@@H](O)C[C@@]3(C)[C@H]2CC[C@]3(O)C(=O)CO)[C@@]2(C)C=CC(=O)C=C12 [METHYLPREDNISOLONE] | 0.22 |
| COCCc1ccc(OCC(O)CNC(C)C)cc1 (centres undefined) [METOPROLOL] | 0.29 |
| CN(C)c1ccc(O)c2c1C[C@H]1C[C@H]3[C@H](N(C)C)C(O)=C(C(N)=O)C(=O)[C@@]3(O)C(O)=C1C2=O [MINOCYCLINE] | 0.21 |
| CC(C)(C)NCC(O)COc1cccc2c1CC(O)C(O)C2 (centres undefined) [NADOLOL] | 0.4 |
| CCn1cc(C(=O)O)c(=O)c2cc(F)c(N3CCNCC3)cc21 [NORFLOXACIN] | 0.14 |
| CO[C@@H]1[C@@H](OC(N)=O)[C@@H](O)[C@H](Oc2ccc3c(O)c(NC(=O)c4ccc(O)c(CC=C(C)C)c4)c(=O)oc3c2C)OC1(C)C [NOVOBIOCIN] | 0.35 |
| Cc1nccn1CC1CCc2c(c3ccccc3n2C)C1=O (centres undefined) [ONDANSETRON] | 0.37 |
| C=CCOc1ccccc1OCC(O)CNC(C)C (centres undefined) [OXPRENOLOL] | 0.15 |
| CCCCC1C(=O)N(c2ccccc2)N(c2ccc(O)cc2)C1=O (centres undefined) [OXYPHENBUTAZONE ANHYDROUS] | 0.02 |

| Structure (SMILES) | Log K' |
| --- | --- |
| CC1(C)S[C@@H]2[C@H](NC(=O)COc3ccccc3)C(=O)N2[C@H]1C(=O)O [PENICILLIN V] | 0.69 |
| CC(C)NCC(O)COc1cccc2[nH]ccc12 (centres undefined) [PINDOLOL] | 0.13 |
| COc1cc2nc(N3CCN(C(=O)c4ccco4)CC3)nc(N)c2cc1OC [PRAZOSIN] | 0.06 |
| C[C@]12C=CC(=O)C=C1CC[C@@H]1[C@@H]2[C@@H](O)C[C@@]2(C)[C@H]1CC[C@]2(O)C(=O)CO [PREDNISOLONE] | 0.4 |
| CCN(CC)CCOC(=O)c1ccc(N)cc1 [PROCAINE] | 0.19 |
| CC(=O)[C@H]1CC[C@H]2[C@@H]3CCC4=CC(=O)CC[C@]4(C)[C@H]3CC[C@]12C [PROGESTERONE] | 0.59 |
| CN(C)CCCN1c2ccccc2Sc2ccccc21 [PROMAZINE] | 0.92 |
| CC(C)NCC(O)COc1cccc2ccccc12 (centres undefined) [PROPRANOLOL] | 0.28 |
| C=C[C@H]1C[N@@]2CC[C@H]1C[C@@H]2[C@@H](O)c1ccnc2ccc(OC)cc12 [QUINIDINE] | 0.44 |
| C=C[C@H]1C[N@@]2CC[C@H]1C[C@H]2[C@H](O)c1ccnc2ccc(OC)cc12 [QUININE] | 0.49 |
| CNC(=C[N+](=O)[O-])NCCSCc1ccc(CN(C)C)o1 [RANITIDINE] | 0.1 |
| CN(C)[C@@H]1C(O)=C(C(N)=O)C(=O)[C@@]2(O)C(O)=C3C(=O)c4c(O)cccc4C[C@H]3C[C@@H]12 [SANCYCLINE] | 0.21 |
| CC(C)NCC(O)c1ccc(NS(C)(=O)=O)cc1 (centres undefined) [SOTALOL] | 0.44 |
| Nc1ccc(S(=O)(=O)Nc2ccnn2-c2ccccc2)cc1 [SULFAPHENAZOLE] | 0.21 |
| COc1cc2nc(N3CCN(C(=O)C4CCCO4)CC3)nc(N)c2cc1OC (centres undefined) [TERAZOSIN] | 0.16 |
| CN(C/C=C/C#CC(C)(C)C)Cc1cccc2ccccc12 [TERBINAFINE] | 1.17 |
| C[C@]12CC[C@H]3[C@@H](CCC4=CC(=O)CC[C@@]43C)[C@@H]1CC[C@@H]2O [TESTOSTERONE] | 0.74 |
| CCCCNc1ccc(C(=O)OCCN(C)C)cc1 [TETRACAINE] | 0.32 |
| CN(C)[C@@H]1C(O)=C(C(N)=O)C(=O)[C@@]2(O)C(O)=C3C(=O)c4c(O)cccc4[C@@](C)(O)[C@H]3C[C@@H]12 [TETRACYCLINE] | 0.08 |
| CC(C)(C)NC[C@H](O)COc1nsnc1N1CCOCC1 [TIMOLOL] | 0.33 |
| Cc1ccc(S(=O)(=O)NC(=O)NN2CCCCCC2)cc1 [TOLAZAMIDE] | 0.42 |
| CN(C)CCCN1c2ccccc2Sc2ccc(C(F)(F)F)cc21 [TRIFLUPROMAZINE] | 1.05 |
| COc1cc(Cc2cnc(N)nc2N)cc(OC)c1OC [TRIMETHOPRIM] | 0.26 |
| N[C@@H](Cc1c[nH]c2ccccc12)C(=O)O [TRYPTOPHAN] | 0.78 |
